The values that follow come from patent publication US20150209313A1 (priority 2014, published 2015).

Each structure is given as a SMILES string. Entries after “also recorded” stand apart in the source; their conditions may differ. Like-named read-outs stand apart in the source and are kept apart here.

Test [1] concerns Influenza Virus A/Maryland/04/2011 H1N1. The format is cell-based.
Test [2] deals with neuraminidase, Influenza Virus A/California/07/2009 H1N1 (Oseltamivir sensitive) (Influenza A virus (A/California/07/2009(H1N1)), UniProt C3W6G3). The class given is biochemical.
Test [3] deals with Influenza Virus A/California/07/2009 H1N1. The class given is cell-based.

As for `CCOC(=O)C1=C[C@@H](OC(CC)CC)[C@H](NC(C)=O)[C@@H](N)C1` [Oseltamivir], the entries for the “plaque inhibitory effect (in words)” value in test [1] and in test [3] were “only partially sensitive; also recorded: reduced oseltamivir susceptibility” and “sensitive to this drug to 1 μM; also recorded: inhibitory effects”, respectively. Further, the “Average Fluorescence” value turned out to be 66385.00 in test [2] (0.005 nM); 56340.00 in test [2] (0.05 nM); 32060.00 in test [2] (0.5 nM); 7802.00 in test [2] (5 nM); 1215.00 in test [2] (50 nM); 354.00 in test [2] (500 nM). Further, the “Average Fluorescence” value in test [2] (5,000 nM) is listed as 179.00; in test [2] (50,000 nM) it was 365.00.
